Assay: xn = mol fraction of the nth substance listed
Details: 99.7 kPa

Row | viscosity (303.15 K, x2 = 0.7343) [mPa·s] | viscosity (303.15 K, x2 = 0.917) [mPa·s] | viscosity (313.15 K, x2 = 0.4086) [mPa·s] | viscosity (313.15 K, x2 = 0.7343) [mPa·s] | viscosity (313.15 K, x2 = 0.917) [mPa·s] | viscosity (323.15 K, x2 = 0.4086) [mPa·s] | viscosity (323.15 K, x2 = 0.7343) [mPa·s] | viscosity (323.15 K, x2 = 0.917) [mPa·s] | viscosity (333.15 K, x2 = 0.4086) [mPa·s] | viscosity (333.15 K, x2 = 0.7343) [mPa·s] | viscosity (333.15 K, x2 = 0.917) [mPa·s] | viscosity (303.15 K, x1 = 1) [mPa·s] | viscosity (313.15 K, x1 = 1) [mPa·s] | viscosity (333.15 K, x1 = 1) [mPa·s] | SMILES
1 | 5.22 | 2.84 | 26.1 | 5.01 | 2.61 | 18.1 | 4.81 | 2.36 | 12.9 | 4.62 | 2.16 | – | – | – | CCCCCCCCn1cc[n+](C)c1.F[B-](F)(F)F + CC1COC(=O)O1
2 | – | – | – | – | – | – | – | – | – | – | – | 2.21 | 2 | 1.6 | CC1COC(=O)O1 (centres undefined) + CCCCCCCCn1cc[n+](C)c1.F[B-](F)(F)F

— a compilation of properties of binary mixtures (doi:10.1016/j.jct.2019.106017)
